Test results taken from ChEMBL document CHEMBL4665869, “New thiazolopyrimidine as anticancer agents: Synthesis, biological evaluation, DNA binding, molecular modeling and ADMET study” (Bioorg Med Chem Lett, 2020).
Values after ≈ are worked out from the molar mass of the structure shown.

Experiments:
LOX IMVI = assay: Growth inhibition of human LOX IMVI cells at 10 uM relative to control; assay type: functional; conditions: read-out: GI
MDA-MB-468 = assay: Growth inhibition of human MDA-MB-468 cells at 10 uM relative to control; assay type: functional; conditions: read-out: GI
T47D = assay: Growth inhibition of human T47D cells at 10 uM relative to control; assay type: functional; conditions: read-out: GI
CCRF-CEM = assay: Growth inhibition of human CCRF-CEM cells at 10 uM relative to control; assay type: functional; conditions: read-out: GI
HL-60(TB) = assay: Growth inhibition of human HL-60(TB) cells at 10 uM relative to control; assay type: functional; conditions: read-out: GI
K562 = assay: Growth inhibition of human K562 cells at 10 uM relative to control; assay type: functional; conditions: read-out: GI
MOLT-4 = assay: Growth inhibition of human MOLT-4 cells at 10 uM relative to control; assay type: functional; conditions: read-out: GI
RPMI-8226 = assay: Growth inhibition of human RPMI-8226 cells at 10 uM relative to control; assay type: functional; conditions: read-out: GI
SR = assay: Growth inhibition of human SR cells at 10 uM relative to control; assay type: functional; conditions: read-out: GI
A549 = assay: Growth inhibition of human A549 cells at 10 uM relative to control; assay type: functional; conditions: read-out: GI
HOP-62 = assay: Growth inhibition of human HOP-62 cells at 10 uM relative to control; assay type: functional; conditions: read-out: GI
HOP-92 = assay: Growth inhibition of human HOP-92 cells at 10 uM relative to control; assay type: functional; conditions: read-out: GI
NCI-H226 = assay: Growth inhibition of human NCI-H226 cells at 10 uM relative to control; assay type: functional; conditions: read-out: GI
NCI-H23 = assay: Growth inhibition of human NCI-H23 cells at 10 uM relative to control; assay type: functional; conditions: read-out: GI
NCI-H322M = assay: Growth inhibition of human NCI-H322M cells at 10 uM relative to control; assay type: functional; conditions: read-out: GI
NCI-H460 = assay: Growth inhibition of human NCI-H460 cells at 10 uM relative to control; assay type: functional; conditions: read-out: GI
NCI-H522 = assay: Growth inhibition of human NCI-H522 cells at 10 uM relative to control; assay type: functional; conditions: read-out: GI
SW-620 = assay: Growth inhibition of human SW-620 cells at 10 uM relative to control; assay type: functional; conditions: read-out: GI
COLO 205 = assay: Growth inhibition of human COLO 205 cells at 10 uM relative to control; assay type: functional; conditions: read-out: GI
HCC 2998 = assay: Growth inhibition of human HCC 2998 cells at 10 uM relative to control; assay type: functional; conditions: read-out: GI
HCT-116 = assay: Growth inhibition of human HCT-116 cells at 10 uM relative to control; assay type: functional; conditions: read-out: GI
HCT-15 = assay: Growth inhibition of human HCT-15 cells at 10 uM relative to control; assay type: functional; conditions: read-out: GI
HT-29 = assay: Growth inhibition of human HT-29 cells at 10 uM relative to control; assay type: functional; conditions: read-out: GI
KM12 = assay: Growth inhibition of human KM12 cells at 10 uM relative to control; assay type: functional; conditions: read-out: GI
SF-268 = assay: Growth inhibition of human SF-268 cells at 10 uM relative to control; assay type: functional; conditions: read-out: GI
SF-295 = assay: Growth inhibition of human SF-295 cells at 10 uM relative to control; assay type: functional; conditions: read-out: GI
SF-539 = assay: Growth inhibition of human SF-539 cells at 10 uM relative to control; assay type: functional; conditions: read-out: GI
SNB-19 = assay: Growth inhibition of human SNB-19 cells at 10 uM relative to control; assay type: functional; conditions: read-out: GI
SNB-75 = assay: Growth inhibition of human SNB-75 cells at 10 uM relative to control; assay type: functional; conditions: read-out: GI
U-251 = assay: Growth inhibition of human U-251 cells at 10 uM relative to control; assay type: functional; conditions: read-out: GI
Malme-3M = assay: Growth inhibition of human Malme-3M cells at 10 uM relative to control; assay type: functional; conditions: read-out: GI
M14 = assay: Growth inhibition of human M14 cells at 10 uM relative to control; assay type: functional; conditions: read-out: GI
MDA-MB-435 = assay: Growth inhibition of human MDA-MB-435 cells at 10 uM relative to control; assay type: functional; conditions: read-out: GI
SK-MEL-2 = assay: Growth inhibition of human SK-MEL-2 cells at 10 uM relative to control; assay type: functional; conditions: read-out: GI
SK-MEL-28 = assay: Growth inhibition of human SK-MEL-28 cells at 10 uM relative to control; assay type: functional; conditions: read-out: GI
SK-MEL-5 = assay: Growth inhibition of human SK-MEL-5 cells at 10 uM relative to control; assay type: functional; conditions: read-out: GI
UACC-257 = assay: Growth inhibition of human UACC-257 cells at 10 uM relative to control; assay type: functional; conditions: read-out: GI
UACC-62 = assay: Growth inhibition of human UACC-62 cells at 10 uM relative to control; assay type: functional; conditions: read-out: GI
IGROV-1 = assay: Growth inhibition of human IGROV-1 cells at 10 uM relative to control; assay type: functional; conditions: read-out: GI
OVCAR-4 = assay: Growth inhibition of human OVCAR-4 cells at 10 uM relative to control; assay type: functional; conditions: read-out: GI
OVCAR-5 = assay: Growth inhibition of human OVCAR-5 cells at 10 uM relative to control; assay type: functional; conditions: read-out: GI
OVCAR-8 = assay: Growth inhibition of human OVCAR-8 cells at 10 uM relative to control; assay type: functional; conditions: read-out: GI
NCI/ADR-RES = assay: Growth inhibition of human NCI/ADR-RES cells at 10 uM relative to control; assay type: functional; conditions: read-out: GI
SK-OV-3 = assay: Growth inhibition of human SK-OV-3 cells at 10 uM relative to control; assay type: functional; conditions: read-out: GI
786-0 = assay: Growth inhibition of human 786-0 cells at 10 uM relative to control; assay type: functional; conditions: read-out: GI
A498 = assay: Growth inhibition of human A498 cells at 10 uM relative to control; assay type: functional; conditions: read-out: GI
ACHN = assay: Growth inhibition of human ACHN cells at 10 uM relative to control; assay type: functional; conditions: read-out: GI
CAKI-1 = assay: Growth inhibition of human CAKI-1 cells at 10 uM relative to control; assay type: functional; conditions: read-out: GI
RXF 393 = assay: Growth inhibition of human RXF 393 cells at 10 uM relative to control; assay type: functional; conditions: read-out: GI
SN12C = assay: Growth inhibition of human SN12C cells at 10 uM relative to control; assay type: functional; conditions: read-out: GI
TK-10 = assay: Growth inhibition of human TK-10 cells at 10 uM relative to control; assay type: functional; conditions: read-out: GI
UO-31 = assay: Growth inhibition of human UO-31 cells at 10 uM relative to control; assay type: functional; conditions: read-out: GI
PC-3 = assay: Growth inhibition of human PC-3 cells at 10 uM relative to control; assay type: functional; conditions: read-out: GI
DU-145 = assay: Growth inhibition of human DU-145 cells at 10 uM relative to control; assay type: functional; conditions: read-out: GI
MCF7 = assay: Growth inhibition of human MCF7 cells at 10 uM relative to control; assay type: functional; conditions: read-out: GI
MDA-MB-231 = assay: Growth inhibition of human MDA-MB-231 cells at 10 uM relative to control; assay type: functional; conditions: read-out: GI
Hs-578T = assay: Growth inhibition of human Hs-578T cells at 10 uM relative to control; assay type: functional; conditions: read-out: GI
BT-549 = assay: Growth inhibition of human BT-549 cells at 10 uM relative to control; assay type: functional; conditions: read-out: GI
DNA = assay: Displacement of methyl green from DNA (unknown origin) assessed as DNA intercalation after 24 hrs by colorimetric assay; assay type: nucleic-acid assay

For `COc1cc(/C=C/C2=CC(c3cc(OC)c(OC)c(OC)c3)N3C(C)=CSC3=N2)cc(OC)c1OC` (centres undefined), the inhibition of growth at 10 µM (LOX IMVI) was < 10%, the inhibition of growth at 10 µM (MDA-MB-468) was < 10% and the inhibition of growth at 10 µM (T47D) was < 10%. For the same compound, the inhibition of growth at 10 µM (CCRF-CEM) was < 10%, the inhibition of growth at 10 µM (HL-60(TB)) was < 10% and the inhibition of growth at 10 µM (K562) was < 10%. The inhibition of growth at 10 µM (MOLT-4) was < 10%, the inhibition of growth at 10 µM (RPMI-8226) was < 10% and the inhibition of growth at 10 µM (SR) was < 10%. The inhibition of growth at 10 µM (A549) was < 10%, the inhibition of growth at 10 µM (HOP-62) was < 10% and the inhibition of growth at 10 µM (HOP-92) was < 10%. For the same compound, the inhibition of growth at 10 µM (NCI-H226) was < 10%, the inhibition of growth at 10 µM (NCI-H23) was < 10% and the inhibition of growth at 10 µM (NCI-H322M) was < 10%. The inhibition of growth at 10 µM (NCI-H460) was < 10%, the inhibition of growth at 10 µM (NCI-H522) was 14.5% and the inhibition of growth at 10 µM (SW-620) was < 10%. The inhibition of growth at 10 µM (COLO 205) was < 10%, the inhibition of growth at 10 µM (HCC 2998) was < 10% and the inhibition of growth at 10 µM (HCT-116) was < 10%. For the same compound, the inhibition of growth at 10 µM (HCT-15) was < 10%, the inhibition of growth at 10 µM (HT-29) was < 10% and the inhibition of growth at 10 µM (KM12) was < 10%. For the same compound, the inhibition of growth at 10 µM (SF-268) was < 10%, the inhibition of growth at 10 µM (SF-295) was < 10% and the inhibition of growth at 10 µM (SF-539) was < 10%. For the same compound, the inhibition of growth at 10 µM (SNB-19) was < 10%, the inhibition of growth at 10 µM (SNB-75) was 12.5% and the inhibition of growth at 10 µM (U-251) was < 10%. The inhibition of growth at 10 µM (Malme-3M) was < 10%, the inhibition of growth at 10 µM (M14) was < 10% and the inhibition of growth at 10 µM (MDA-MB-435) was < 10%. For the same compound, the inhibition of growth at 10 µM (SK-MEL-2) was < 10%, the inhibition of growth at 10 µM (SK-MEL-28) was < 10% and the inhibition of growth at 10 µM (SK-MEL-5) was < 10%. For the same compound, the inhibition of growth at 10 µM (UACC-257) was < 10%, the inhibition of growth at 10 µM (UACC-62) was < 10% and the inhibition of growth at 10 µM (IGROV-1) was < 10%. The inhibition of growth at 10 µM (OVCAR-4) was < 10%, the inhibition of growth at 10 µM (OVCAR-5) was < 10% and the inhibition of growth at 10 µM (OVCAR-8) was < 10%. The inhibition of growth at 10 µM (NCI/ADR-RES) was < 10%, the inhibition of growth at 10 µM (SK-OV-3) was < 10% and the inhibition of growth at 10 µM (786-0) was < 10%. For the same compound, the inhibition of growth at 10 µM (A498) was < 10%, the inhibition of growth at 10 µM (ACHN) was < 10% and the inhibition of growth at 10 µM (CAKI-1) was < 10%. The inhibition of growth at 10 µM (RXF 393) was < 10%, the inhibition of growth at 10 µM (SN12C) was < 10% and the inhibition of growth at 10 µM (TK-10) was < 10%. The inhibition of growth at 10 µM (UO-31) was < 10%, the inhibition of growth at 10 µM (PC-3) was < 10% and the inhibition of growth at 10 µM (DU-145) was < 10%. The inhibition of growth at 10 µM (MCF7) was < 10%, the inhibition of growth at 10 µM (MDA-MB-231) was < 10% and the inhibition of growth at 10 µM (Hs-578T) was < 10%. For the same compound, the inhibition of growth at 10 µM (BT-549) was < 10% and the IC50 (DNA) was 91.48 µg/mL (≈ 179 µM).
